From ChEMBL document CHEMBL3272224, “Synthesis and hypotensive activity of N-alkyl-N"-cyano-N'-pyridylguanidines” (J Med Chem, 1978)

How the values were obtained:
[1] = Toxicity in po dosed mouse assessed as mortality after 7 days; details: in vivo
Rattus norvegicus = experiment: Hypotensive activity in po dosed spontaneously hypertensive Wistar-Okamoto rat assessed as dose required to cause 30 mmHg fall of blood pressure administered for 5 days; type: functional; details: 120 h, read-out: MED

Row | Structure (SMILES) | LD50 at 168 h [1] | minimal effective dose (Rattus norvegicus)
1 | CCCCC(CC)C/N=C(\NC#N)Nc1cccnc1 (stereo unspecified) | > 1000 mg/kg | > 50 mg/kg
2 | Cc1cccc(C)c1N/C(=N/C#N)NC(C)(C)C | > 1000 mg/kg | > 50 mg/kg
3 | CCC(C)(CC)/N=C(\NC#N)Nc1ccncc1 | 300 mg/kg | 0.5 mg/kg
4 | CCC(C)(C)N/C(=N\C#N)Nc1ccc(N(C)C)cc1 | > 1000 mg/kg | > 50 mg/kg
5 | CCCCC/N=C(\NC#N)Nc1cccnc1 | > 1000 mg/kg | 20 mg/kg
6 | CCC(CC)/N=C(\NC#N)Nc1cccnc1 | 600 mg/kg | 20 mg/kg
7 | CC(C)(C)/N=C(\NC#N)Nc1ccc(Cl)cn1 | 800 mg/kg | 25 mg/kg
8 | CCC(C)(CC)/N=C(\NC#N)Nc1cccnc1 | > 1000 mg/kg | 0.5 mg/kg
